In brackets after ≈: the same amount, converted by molar mass. Like-named read-outs stand apart in the source and are kept apart here.
Key:
Type in all cases: cell-based
A. baumannii ATCC 19606 = experiment: MIC (broth microdilution or agar dilution, CLSI)
Outline: (§1)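 Inoculum for broth microdilution was 5×10^5 CFU/mL final, prepared from overnight 35° C blood-agar subcultures (separate handling for streptococcal and anaerobic strains); MICs read by CLSI broth microdilution or agar dilution.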

[1] = system: broad panel of different clinical isolates; experiment: microbe, parasite or virus in culture
Outline: as §1

E. faecium Clinical VRE = experiment: MIC (broth microdilution or agar dilution, CLSI); settings: Enterococcus faecium, VRE
Outline: (§2)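 Triplicate CLSI determinations by broth or agar dilution, compound at 128-0.06 μg/mL in 2.5% DMSO; special handling for anaerobes. Broth microdilution used 5×10^5 CFU/mL inocula in cation-adjusted Mueller-Hinton broth.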

C. difficile ATCC 700057 = experiment: MIC (broth microdilution or agar dilution, CLSI)
Outline: as §2

E. faecium Line R & VRE = experiment: MIC (broth microdilution or agar dilution, CLSI)
Outline: as §2

P. aeruginosa ATCC 27853 = experiment: MIC (broth microdilution or agar dilution, CLSI)
Outline: as §2

C. scindens ATCC 35704 = experiment: MIC (broth microdilution or agar dilution, CLSI)
Outline: as §2

P. aeruginosa ΔAmex OprM = experiment: MIC (broth microdilution or agar dilution, CLSI)
Outline: as §2

[2] = system: E. coli MP-74 LptD mutant; experiment: MIC (broth microdilution or agar dilution, CLSI); settings: Escherichia coli
Outline: as §2

S. aureus cErmA = experiment: MIC (broth microdilution or agar dilution, CLSI); settings: Staphylococcus aureus
Outline: as §2

E. faecium VRE = experiment: MIC (broth microdilution or agar dilution, CLSI); settings: Enterococcus faecium, VRE
Outline: as §2

B. fragilis ATCC 25285 = experiment: MIC (broth microdilution or agar dilution, CLSI); settings: Bacteroides fragilis, read-out: MIC
Outline: as §2

S. aureus MRSA = experiment: MIC (broth microdilution or agar dilution, CLSI); settings: Staphylococcus aureus
Outline: as §2

E. faecalis VRE = experiment: MIC (CLSI), third E. faecalis VRE line of Table 4; settings: Enterococcus faecalis, VRE
Protocol: Minimum inhibitory concentrations (MICs) were determined by broth microdilution method or agar dilution method following the Clinical and Laboratory Standards Institute guidelines. Standard bacterial strains were obtained from American Type Culture Collection (ATCC). Other bacterial strains were obtained from hospitals and commercial sources, so noted in Table 11. Before the start of the MIC experiment, standard and test compound stock solutions were prepared in dimethyl sulfoxide (DMSO, Aldrich D2650) at a stock concentration of 5,120 μg/mL. The compound concentration range typically employed for each experiment was 128-0.06 μg/mL (2.5% final DMSO concentration). Clindamycin was used as a comparator in all experiments and each experiment was performed in triplicate. Specialized procedures were employed for streptococcal and anaerobic strains. All other bacterial strains were sub-cultured on blood agar plates (tryptic soy agar with 5% sheep blood, Hardy Diagnostics) and incubated overnight at 35° C. Organisms were suspended in cation-adjusted Mueller-Hinton broth (CaMHB, BD 212322) and optical density was adjusted to 0.5 McFarland standard. Suspensions were further diluted to obtain a final inoculum of 5×10^5 CFU/mL for broth microdilution experiments.

CCC[C@@H]1C[C@@H](C(=O)N[C@@H]([C@H]2O[C@H](SC)[C@H](O)[C@@H](O)[C@H]2O)[C@H](C)Cl)N(C)C1 [Clindamycin, clindamycin, reference compound]
MIC (A. baumannii ATCC 19606; A. baumanii HAV#010, ATCC 19606): >128 mg/L | MIC (A. baumannii ATCC 19606; Acinetobacter baumannii, ATCC19606): > 128 mg/L | MIC ([1]; Acinetobacter baumannii, A. baumannii HAV#651, Clinical): 128 mg/L (≈ 301 µM) | MIC ([1]; Acinetobacter baumannii, A. baumannii HAV#652 Clinical): 128 mg/L (≈ 301 µM) | MIC ([1]; Acinetobacter baumannii, A. baumannii HAV#653, Clinical): 64 mg/L (≈ 151 µM) | MIC ([1]; Acinetobacter baumannii, A. baumannii HAV#654, Clinical): 64 mg/L (≈ 151 µM) | MIC ([1]; Acinetobacter baumannii, A. baumannii HAV#655, Clinical): 128 mg/L (≈ 301 µM) | MIC ([1]; Acinetobacter baumannii, A. baumannii HAV#656, Clinical): 128 mg/L (≈ 301 µM) | MIC ([1]; Acinetobacter baumannii, A. baumannii HAV#657, Clinical): 128 mg/L (≈ 301 µM) | MIC ([1]; Acinetobacter baumannii, A. baumannii HAV#658, Clinical): 64 mg/L (≈ 151 µM) | MIC ([1]; Acinetobacter baumannii, A. baumannii HAV#659, Clinical): 128 mg/L (≈ 301 µM) | MIC ([1]; Acinetobacter baumannii, A. baumannii HAV#660, Clinical): > 128 mg/L | MIC ([1]; Acinetobacter baumannii, A. baumannii HAV#661, Clinical): 64 mg/L (≈ 151 µM) | MIC ([1]; Acinetobacter baumannii, A. baumannii HAV#662, Clinical): 64 mg/L (≈ 151 µM) | MIC ([1]; Acinetobacter baumannii, A. baumannii HAV#663, Clinical): 32 mg/L (≈ 75.3 µM) | MIC ([1]; Acinetobacter baumannii, A. baumannii HAV#664, Carbapenem R): 128 mg/L (≈ 301 µM) | MIC ([1]; Enterococcus faecalis, E. faecalis HAV#602, Clincal): 16 mg/L (≈ 37.6 µM) | MIC ([1]; Enterococcus faecalis, E. faecalis HAV#611, Line R & Vanco R): 128 mg/L (≈ 301 µM) | MIC ([1]; Enterococcus faecalis, E. faecalis HAV#612, Line R): 8 mg/L (≈ 18.8 µM) | MIC ([1]; Enterococcus faecalis, S. faecalis 5060, Line R & Vanco R): 128 mg/L (≈ 301 µM) | MIC ([1]; Enterococcus faecalis, S. faecalis 5074, Line R): 8 mg/L (≈ 18.8 µM) | MIC ([1]; Enterococcus faecalis, VRE, E. faecalis HAV#251, Clinical VRE): > 128 mg/L | MIC ([1]; Enterococcus faecium, E. faecium HAV#317, Clinical): 8 mg/L (≈ 18.8 µM) | MIC ([1]; Enterococcus faecium, E. faecium HAV#327, Clinical): 8 mg/L (≈ 18.8 µM) | MIC ([1]; Enterococcus faecium, E. faecium HAV#604, Clinical): 8 mg/L (≈ 18.8 µM) | MIC ([1]; Enterococcus faecium, VRE, E. faecium HAV#318, VanA): > 128 mg/L | MIC ([1]; Enterococcus faecium, VRE, E. faecium HAV#320, Clinical): > 128 mg/L | MIC ([1]; Enterococcus faecium, VRE, E. faecium HAV#326, Clinical): 8 mg/L (≈ 18.8 µM) | MIC ([1]; Escherichia coli, E. coli HAV#501, Clinical): > 128 mg/L | MIC ([1]; Escherichia coli, E. coli HAV#503, Clinical): 64 mg/L (≈ 151 µM) | MIC ([1]; Escherichia coli, E. coli HAV#511, Clinical): 128 mg/L (≈ 301 µM) | MIC ([1]; Escherichia coli, E. coli HAV#512, Clinical): > 128 mg/L | MIC ([1]; Escherichia coli, E. coli HAV#513, Clinical): > 128 mg/L | MIC ([1]; Escherichia coli, E. coli HAV#514, Clinical): 128 mg/L (≈ 301 µM) | MIC ([1]; Escherichia coli, E. coli HAV#516, ESBL-producing): 128 mg/L (≈ 301 µM) | MIC ([1]; Haemophilus influenzae, ATCC9007, H. influenzae HAV#376, ATCC-9007): 8 mg/L (≈ 18.8 µM) | MIC ([1]; Klebsiella pneumoniae, K. pneumoniae HAV#402, FQ-R): > 128 mg/L | MIC ([1]; Klebsiella pneumoniae, K. pneumoniae HAV#404, Clinical): 128 mg/L (≈ 301 µM) | MIC ([1]; Klebsiella pneumoniae, K. pneumoniae HAV#405, Clinical): > 128 mg/L | MIC ([1]; Klebsiella pneumoniae, K. pneumoniae HAV#406, Clinical): > 128 mg/L | MIC ([1]; Klebsiella pneumoniae, K. pneumoniae HAV#407, Clinical): > 128 mg/L | MIC ([1]; Klebsiella pneumoniae, K. pneumoniae HAV#408, Clinical): > 128 mg/L | MIC ([1]; Klebsiella pneumoniae, K. pneumoniae HAV#409, ESBL-producing): > 128 mg/L | MIC ([1]; Neisseria gonorrhoeae, N. gonorrhoeae HAV#701, Clinical): 2 mg/L (≈ 4.71 µM) | MIC ([1]; Neisseria gonorrhoeae, N. gonorrhoeae HAV#702, Clinical): 0.5 mg/L (≈ 1.18 µM) | MIC ([1]; Staphylococcus aureus, MRSA, S. aureus HAV#220, Line R): > 128 mg/L | MIC ([1]; Staphylococcus aureus, MSSA, S. aureus HAV#219, Line R): > 128 mg/L | MIC ([1]; Staphylococcus aureus, S. aureus HAV#051, mecA, norA, spcl, ermA, aad1, aac6′-aph2″): 0.06 mg/L (≈ 0.141 µM) | MIC ([1]; Staphylococcus aureus, S. aureus HAV#052, mecA, norA, fosB, blaZ): 0.06 mg/L (≈ 0.141 µM) | MIC ([1]; Staphylococcus aureus, S. aureus HAV#053 mecA, norA, fosB): 0.06 mg/L (≈ 0.141 µM) | MIC ([1]; Staphylococcus aureus, S. aureus HAV#211, Clinical): > 64 mg/L | MIC ([1]; Staphylococcus aureus, S. aureus HAV#212, Clinical): 0.125 mg/L (≈ 0.294 µM) | MIC ([1]; Staphylococcus aureus, S. aureus HAV#213, Clinical): 0.125 mg/L (≈ 0.294 µM) | MIC ([1]; Staphylococcus aureus, S. aureus HAV#214, Clinical): 0.06 mg/L (≈ 0.141 µM) | MIC ([1]; Staphylococcus aureus, S. aureus HAV#215, Clinical): 0.125 mg/L (≈ 0.294 µM) | MIC ([1]; Staphylococcus aureus, S. aureus HAV#216, Clinical, cfr): 128 mg/L (≈ 301 µM) | MIC ([1]; Staphylococcus aureus, S. aureus HAV#217, cfr): > 128 mg/L | MIC ([1]; Staphylococcus aureus, VISA, S. aureus HAV#203, Clinical (VISA)): > 64 mg/L | MIC ([1]; Staphylococcus epidermidis, S. epidermidis HAV# 275 Clinical, cfr): > 128 mg/L | MIC ([1]; Staphylococcus epidermidis, S. epidermidis HAV# 276, cfr): > 128 mg/L | MIC ([1]; Staphylococcus epidermidis, S. epidermidis HAV#277, Line R): > 128 mg/L | MIC ([1]; Staphylococcus epidermidis, S. epidermidis HAV#278 Line R): > 128 mg/L | MIC ([1]; Staphylococcus epidermidis, S. epidermidis HAV#279, Line R): 0.25 mg/L (≈ 0.588 µM) | MIC ([1]; Staphylococcus haemolyticus, S. haemolyticus 5052, Line R & Methicillin R): 2 mg/L (≈ 4.71 µM) | MIC ([1]; Staphylococcus haemolyticus, S. haemolyticus HAV#252, Line R & Methicillin R): 2 mg/L (≈ 4.71 µM) | MIC ([1]; Streptococcus pneumoniae, ATCC700673, S. pneumoniae HAV#352, ATCC 700673, MDR): > 64 mg/L | MIC ([1]; Streptococcus pneumoniae, ATCCBAA255, S. pneumoniae HAV#354, ATCC-BAA-255): 0.25 mg/L (≈ 0.588 µM) | MIC ([1]; Streptococcus pneumoniae, ATCCBAA334, S. pneumoniae HAV#353, ATCC-BAA-334): 0.25 mg/L (≈ 0.588 µM) | MIC ([1]; Streptococcus pneumoniae, S. pneumoniae HAV#356, Clinical): > 64 mg/L | MIC ([1]; Streptococcus pneumoniae, S. pneumoniae HAV#358, Clinical): 0.25 mg/L (≈ 0.588 µM) | MIC (E. faecium Clinical VRE): > 128 mg/L | MIC (C. difficile ATCC 700057; C. difficile HAV#011, ATCC 700057): 8 mg/L (≈ 18.8 µM) | MIC (C. difficile ATCC 700057; Clostridioides difficile, ATCC700057, C. difficile ATCC 700057, read-out: MIC): 8 mg/L (≈ 18.8 µM) | MIC (E. faecium Line R & VRE; E. faecium HAV#319, Line R & Vanco R): >128 mg/L | MIC (E. faecium Line R & VRE; Enterococcus faecium): > 128 mg/L | MIC (P. aeruginosa ATCC 27853; P. aeruginosa HAV#009, ATCC 27853): >128 mg/L | MIC (P. aeruginosa ATCC 27853; Pseudomonas aeruginosa, ATCC27853): > 128 mg/L | MIC (C. scindens ATCC 35704; C. scindens HAV#012, ATCC 35704): 2 mg/L (≈ 4.71 µM) | MIC (C. scindens ATCC 35704; [Clostridium] scindens, ATCC35704, C. scindens ATCC 35704, read-out: MIC): 2 mg/L (≈ 4.71 µM) | MIC (P. aeruginosa ΔAmex OprM; P. aeruginosa HAV#039, ΔAmex OprM): 32 mg/L (≈ 75.3 µM) | MIC (P. aeruginosa ΔAmex OprM; Pseudomonas aeruginosa): 32 mg/L (≈ 75.3 µM) | MIC [2]: 4 mg/L (≈ 9.41 µM) | MIC (S. aureus cErmA): > 128 mg/L | MIC (E. faecium VRE): > 128 mg/L | MIC (B. fragilis ATCC 25285; ATCC25285, B. fragilis ATCC 25285): 1 mg/L (≈ 2.35 µM) | MIC (B. fragilis ATCC 25285; ATCC25285, B. fragilis HAV#013, ATCC 25285): 0.5 mg/L (≈ 1.18 µM) | MIC (S. aureus MRSA): 0.25 mg/L (≈ 0.588 µM) | MIC (E. faecalis VRE): > 128 mg/L
